Where two headings read alike, the source gives them in different places.

For assay [1], the target named is T1, GnRH receptor (Homo sapiens, UniProt P30968).
T1 sequence (P30968 1-328): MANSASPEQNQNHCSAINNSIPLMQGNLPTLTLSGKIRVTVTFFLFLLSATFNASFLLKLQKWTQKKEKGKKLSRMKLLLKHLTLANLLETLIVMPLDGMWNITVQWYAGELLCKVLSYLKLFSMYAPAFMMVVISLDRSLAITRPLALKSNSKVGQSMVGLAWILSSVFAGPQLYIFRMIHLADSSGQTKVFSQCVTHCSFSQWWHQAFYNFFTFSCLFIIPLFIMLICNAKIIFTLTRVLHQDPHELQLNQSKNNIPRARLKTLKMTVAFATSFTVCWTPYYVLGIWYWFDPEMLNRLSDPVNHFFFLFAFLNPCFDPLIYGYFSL
In words: GnRH receptor-membrane binding assay ([125I]-D-Trp6-LHRH displacement). Also noted: purchased PerkinElmer; host or cells: CHO-K1 (ATCC CCL-61), stably transfected. The settings on record: for inhibition at 0.01 µM: read-out: GnRH binding inhibition (%) at 10 nM; for inhibitory effect compared with compounds comprising alkyl group (Examples 1-2 and 1-3): benzyl versus alkyl substituent at spiro-piperidine, comment on Table 10 (binding and NFAT reporter). On the procedure:
A GnRH receptor membrane binding assay was carried out for the compounds of the present invention by employing a membrane substrate (PerkinElmer) isolated from CHO-K1 cells (ATCC CCL-61) stably transfected with a GnRH receptor.
A reaction was initiated by the addition of a 0.2 nM [^125I]-labeled D-Trp^6-LHRH peptide and the GnRH receptor membrane substrate at a density of 1 μg/250 μL/well, together with the inventive compounds at various concentrations ranging from 0.1 nM to 100 nM, to a binding buffer composed of 25 mM Hepes (pH 7.4), 10 mM MgCl2, 1 mM CaCl2 and 0.5% BSA (pH 7.4). The reaction mixture was incubated at 27° C. for 1 hr and subjected to vacuum suction for binding to a filter (Fitermat A, PerkinElmer). The filter was washed several times with 50 mM tris-HCl buffer to terminate the reaction. The radioactivity binding to the filter was measured using MicroBeta2 TriLux (PerkinElmer). The binding inhibition rate (%) of the inventive compounds were analyzed on the basis of the measured radioactivity, and IC50 value was calculated using a non-linear least square regression method with Prism (GraphPad, Inc.).

Assay [2] has as its target T1, GnRH receptor. In words: NFAT reporter (luciferase) gene expression assay for antagonistic effect on GnRH receptor, HEK293 transformed with pcDNA3.1/GnRH receptor and pGL4/NFAT promoter. The assay is classed as cell-based. Here is the method: For evaluation of antagonistic effect on GnRH receptor, double-transformed cell line, HEK293 (ATCC CRL-1573) which is transformed with pcDNA3.1/GnRH receptor and pGL4/NFAT promoter, was employed.
To conduct a GnRH receptor assay, the HEK293 (ATCC CRL-1573) cell line was diluted at a density of 3×10^4 cells/well in a DMEM medium supplemented with 10% FBS, 1% Penicillin-Streptomycin, and plated into polylysine-coated 96-well plates having a white-clear bottom, followed by incubating the cells at 37° C. for 24 hrs. Then, the medium was changed with a serum-free DMEM medium (1% Penicillin-Streptomycin), and the cells were incubated for an additional 16 hrs before use.
Test compounds were added to the wells in an amount of 1 μM to 0.01 nM, respectively, and further incubated for 1 hr. Then, leuprolide acetate as a ligand (Sigma) was added to the wells in an amount of 1 nM or 20 nM and subjected to an additional incubation for 6 hrs. The reagent of Luciferase assay system (Promega, Cat. No. E1500) was added to the wells and luminescence was measured using a luminometer (PerkinElmer, VICTOR3™, 1420 Multilabel Counter). The compound of formula 10b described in J. Med. Chem. 2008, 51, 7478 was used as a comparative compound.
Each sample was analyzed at a 6-dose level and the NFAT reporter inhibitory rate (%) of the inventive compounds was calculated according to the following equation based on the measured luminescence. Inhibition (%)={1−(compound−negative control)/(positive control−negative control)}×100 [Equation]
wherein, positive control is GnRH treated group; and negative control is non-treated group.

Setting [3] is: compound at 10 nM, 0.2 nM [125I]-D-Trp6-LHRH, CHO-K1 GnRH receptor membrane.
Setting [4] is: HEK293, read-out: NFAT reporter activity inhibition (%) at 100 nM.
The mark [5] stands for this setting: compound at 100 nM, leuprolide acetate as ligand, HEK293, read-out: NFAT reporter activity inhibition (%) at 100 nM.

As usually defined, the inhibition is the change of the read-out against control, counted positive when it falls. In the case of `COCCN1CCC2(CC1)OCc1c2c(=O)n(C[C@H](N)c2ccccc2)c(=O)n1Cc1c(F)cccc1C(F)(F)F` [Example 1-2, (R)-3-(2-amino-2-phenylethyl)-1-(2-fluoro-6-(trifluoromethyl)benzyl)-1′-(2-methoxyethyl)-1H-spiro[furo[3,4-d]pyrimidine-5,4′-piperidine]-2,4(3H,7H)-dione], the inhibition at 0.01 µM in assay [1] (setting [3]) came out at 50.8%.
As to `CC(C)(C)CN1CCC2(CC1)OCc1c2c(=O)n(C[C@H](N)c2ccccc2)c(=O)n1Cc1c(F)cccc1C(F)(F)F` [Example 1-3, (R)-3-(2-amino-2-phenylethyl)-1-(2-fluoro-6-(trifluoromethyl)benzyl)-1′-neopentyl-1H-spiro[furo[3,4-d]pyrimidine-5,4′-piperidine]-2,4(3H,7H)-dione], the inhibition at 0.1 µM in assay [2] (setting [4]) turned out to be 15%.
With `COc1cccc(CN2CCC3(CC2)OCc2c3c(=O)n(C[C@H](N)c3ccccc3)c(=O)n2Cc2c(F)cccc2C(F)(F)F)c1` [Example 1-14, (R)-3-(2-amino-2-phenylethyl)-1-(2-fluoro-6-(trifluoromethyl)benzyl)-1′-(3-methoxybenzyl)-1H-spiro[furo[3,4-d]pyrimidine-5,4′-piperidine]-2,4(3H,7H)-dione], in assay [2] (setting [4]), the inhibition at 0.1 µM came out at 34%. Also, in assay [1], the inhibition at 0.01 µM stood at 96%.
With `N#Cc1cccc(CN2CCC3(CC2)OCc2c3c(=O)n(C[C@H](N)c3ccccc3)c(=O)n2Cc2c(F)cccc2C(F)(F)F)c1` [Example 1-15, (R)-3-((3-(2-amino-2-phenylethyl)-1-(2-fluoro-6-(trifluoromethyl)benzyl)-2,4-dioxo-2,3,4,7-tetrahydro-1H-spiro[furo[3,4-d]pyrimidine-5,4′-piperidine]-1′-yl)methyl)benzonitrile], in assay [2] (setting [4]), the inhibition at 0.1 µM came out at 67%. In assay [1], the “inhibitory effect compared with compounds comprising alkyl group (Examples 1-2 and 1-3)” value is listed as “improved inhibitory effect”; the inhibition at 0.01 µM amounted to 91.3%.
For `COC(=O)c1cccc(CN2CCC3(CC2)OCc2c3c(=O)n(C[C@H](N)c3ccccc3)c(=O)n2Cc2c(F)cccc2C(F)(F)F)c1` [Example 1-19, (R)-methyl 3-((3-(2-amino-2-phenylethyl)-1-(2-fluoro-6-(trifluoromethyl)benzyl)-2,4-dioxo-2,3,4,7-tetrahydro-1H-spiro[furo[3,4-d]pyrimidine-5,4′-piperidin]-1′-yl)methyl)benzoate], the inhibition at 0.1 µM in assay [2] (setting [5]) is 89%. Further, the “inhibitory effect compared with compounds comprising alkyl group (Examples 1-2 and 1-3)” value in assay [1] was “improved inhibitory effect”. The inhibition at 0.01 µM in assay [1] (setting [3]) was 97.5%.
As to `N[C@@H](Cn1c(=O)c2c(n(Cc3c(F)cccc3C(F)(F)F)c1=O)COC21CCN(Cc2cccc3nonc23)CC1)c1ccccc1` [Example 1-25, (R)-3-(2-amino-2-phenylethyl)-1′-(benzo[c][1,2,5]oxadiazol-4-ylmethyl)-1-(2-fluoro-6-(trifluoromethyl)benzyl)-1H-spiro[furo[3,4-d]pyrimidine-5,4′-piperidine]-2,4(3H,7H)-dione], the inhibition at 0.1 µM in assay [2] (setting [5]) is 56%. Moreover, the inhibition at 0.01 µM in assay [1] (setting [3]) is 91.3%.
The like results for `Cc1ccccc1CN1CCC2(CC1)OCc1c2c(=O)n(C[C@H](N)c2ccccc2)c(=O)n1Cc1c(F)cccc1C(F)(F)F` [Example 1-26, (R)-3-(2-amino-2-phenylethyl)-1-(2-fluoro-6-(trifluoromethyl)benzyl)-1′-(2-methylbenzyl)-1H-spiro[furo[3,4-d]pyrimidine-5,4′-piperidine]-2,4(3H,7H)-dione] were, in that order, 22% and 102%.
For `N[C@@H](Cn1c(=O)c2c(n(Cc3c(F)cccc3C(F)(F)F)c1=O)COC21CCN(Cc2ccccc2F)CC1)c1ccccc1` [Example 1-29, (R)-3-(2-amino-2-phenylethyl)-1-(2-fluoro-6-(trifluoromethyl)benzyl)-1′-(2-fluorobenzyl)-1H-spiro[furo[3,4-d]pyrimidine-5,4′-piperidine]-2,4(3H,7H)-dione], in that order: 58% and 104%.
As to `N[C@@H](Cn1c(=O)c2c(n(Cc3c(F)cccc3F)c1=O)COC21CCN(Cc2ccc(C(F)(F)F)o2)CC1)c1ccccc1` [Example 1-42, (R)-3-(2-amino-2-phenylethyl)-1-(2,6-difluorobenzyl)-1′-((5-(trifluoromethyl)furan-2-yl)methyl)-1H-spiro[furo[3,4-d]pyrimidine-5,4′-piperidine]-2,4(3H,7H)-dione], the inhibition at 0.1 µM in assay [2] (setting [5]) turned out to be 82%. Further, the inhibition at 0.01 µM in assay [1] (setting [3]) was found to be 93.9%.
Turning to `Cc1ccc(CN2CCC3(CC2)OCc2c3c(=O)n(C[C@H](N)c3ccccc3)c(=O)n2Cc2c(F)cccc2C(F)(F)F)cc1` [Example 1-50, (R)-3-(2-amino-2-phenylethyl)-1-(2-fluoro-6-(trifluoromethyl)benzyl)-1′-(4-methylbenzyl)-1H-spiro[furo[3,4-d]pyrimidine-5,4′-piperidine]-2,4(3H,7H)-dione], in assay [2] (setting [4]), the inhibition at 0.1 µM amounted to 17%. Besides, the inhibition at 0.01 µM in assay [1] came out at 96.3%.
Turning to `N[C@@H](Cn1c(=O)c2c(n(Cc3c(F)cccc3C(F)(F)F)c1=O)COC21CCN(Cc2ccc(Cl)cc2)CC1)c1ccccc1` [Example 1-51, (R)-3-(2-amino-2-phenylethyl)-1′-(4-chlorobenzyl)-1-(2-fluoro-6-(trifluoromethyl)benzyl)-1H-spiro[furo[3,4-d]pyrimidine-5,4′-piperidine]-2,4(3H,7H)-dione], the inhibition at 0.1 µM in assay [2] (setting [5]) came out at 30%. Also, the inhibition at 0.01 µM in assay [1] (setting [3]) came to 95.6%.
With `N[C@@H](Cn1c(=O)c2c(n(Cc3c(F)cccc3C(F)(F)F)c1=O)COC21CCN(Cc2cocn2)CC1)c1ccccc1` [Example 1-63, (R)-3-(2-amino-2-phenylethyl)-1-(2-fluoro-6-(trifluoromethyl)benzyl)-1′-(oxazol-4-ylmethyl)-1H-spiro[furo[3,4-d]pyrimidine-5,4′-piperidine]-2,4(3H,7H)-dione], the inhibition at 0.1 µM in assay [2] (setting [5]) was 18%. Moreover, in assay [1] (setting [3]), the inhibition at 0.01 µM was found to be 88.6%.
The like results for `N[C@@H](Cn1c(=O)c2c(n(Cc3c(F)cccc3C(F)(F)F)c1=O)CCC21CCN(Cc2ccc(C(F)(F)F)o2)CC1)c1ccccc1` [Example 3-5, (R)-3-(2-amino-2-phenylethyl)-1-(2-fluoro-6-(trifluoromethyl)benzyl)-1′-((5-(trifluoromethyl)furan-2-yl)methyl)-6,7-dihydrospiro[cyclopenta[d]pyrimidine-5,4′-piperidine]-2,4(1H,3H)-dione] were, in that order, 99% and 101%.
Consider `Cc1cccc(C(Cn2c(=O)c3c(n(Cc4c(F)cccc4C(F)(F)F)c2=O)COC32CCN(Cc3ccc(C(F)(F)F)o3)CC2)NCCCC(=O)O)n1` (stereo not shown) [Example 36, 4-((2-(1-(2-fluoro-6-(trifluoromethyl)benzyl)-2,4-dioxo-1′-((5-(trifluoromethyl)furan-2-yl)methyl)-1H-spiro[furo[3,4-d]pyrimidine-5,4′-piperidin]-3(2H,4H,7H)-yl)-1-(6-methylpyridin-2-yl)ethyl)amino)butanoic acid], for which the inhibition at 0.01 µM turned out to be 88.2% in assay [2] (compound at 10 nM, leuprolide acetate as ligand, HEK293) and 88% in assay [1] (setting [3]).

The values above are taken from patent US9481684B2, “Gonadotropin releasing hormone receptor antagonists, method for the preparation thereof and pharmaceutical composition comprising the same” (SK CHEMICALS CO., LTD., priority 2012, dated 2016).
